The source of these data is US10196345B2, “MAO-B selective inhibitor compounds, pharmaceutical compositions thereof and uses thereof” (The University of British Columbia, priority 2013, dated 2019).

Values joined by “and” are separate entries in the source; they are usually repeats but may differ in a detail not shown here. Equal entries are not always repeated. “Also recorded” adds a separate entry of the source. Structures can show the parent of a compound that is named as a salt. Where two headings read alike, the source gives them in different places.

One series deals with T1, recombinant human MAO-A (Homo sapiens, UniProt P21397).
T1 sequence (P21397 1-527): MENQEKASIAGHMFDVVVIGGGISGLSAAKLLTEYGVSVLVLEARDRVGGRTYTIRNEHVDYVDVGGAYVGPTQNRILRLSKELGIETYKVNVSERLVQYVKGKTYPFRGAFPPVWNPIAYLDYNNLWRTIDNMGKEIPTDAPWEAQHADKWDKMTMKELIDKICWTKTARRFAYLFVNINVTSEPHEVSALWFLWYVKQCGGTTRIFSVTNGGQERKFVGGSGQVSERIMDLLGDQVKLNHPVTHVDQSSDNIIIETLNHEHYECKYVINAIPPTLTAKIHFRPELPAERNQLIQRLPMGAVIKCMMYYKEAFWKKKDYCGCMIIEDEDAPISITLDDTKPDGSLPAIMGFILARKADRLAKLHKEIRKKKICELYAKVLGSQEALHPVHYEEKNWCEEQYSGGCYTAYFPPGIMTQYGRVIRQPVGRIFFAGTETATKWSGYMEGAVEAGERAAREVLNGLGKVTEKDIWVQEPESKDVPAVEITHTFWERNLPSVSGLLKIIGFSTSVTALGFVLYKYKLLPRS
Put plainly: Cell-free Fluorescent Monoamine Oxidase A&B Detection Assay, MAO-A. Type of series: biochemical. Conditions: for IC50: read-out: IC50 MAO-A. As to the method:
(§1) The assay was repeated to confirm data.
(§2) MAO B specific inhibitory activity and selectivity over MAO A is assayed using a commercial kit [Fluoro MAO A and B detection kit (Cell Technology Inc™)]. This kit uses a non-fluorescent detection reagent to measure H2O2 released from the conversion of an MAO A and MAO B substrate specific to its aldehyde. Furthermore, H2O2 oxidizes the detection reagent in a 1:1 stoichiometry to produce a fluorescent product (resorufin). […] This information is then provided to the medicinal chemists to help direct synthesis of subsequent iterations.

Series [1] relates to Madin Darby canine kidney (MDCK-I) cells. In words: TEER in MDCK-I cells. Type of series: cell-based. Conditions: for 144-hour barrier (TEER) vs control: MDCK-I, treated at 72 hours; for effect on TEER (MAO A, B, AB inhibitors): no concentration given. The method, then:
In each case, TEER was measured every 48 hours after treatment.
Transwell cultures were treated at 72 hours (T) post-cell plating.
Transepithelial Resistance (TER) is a common method to screen for barrier integrity. […] Fluorescein isothiocyanate conjugated 10 kD dextran (Invitrogen™) will be added to the apical Transwell™ compartment, fixed, and examined for dextran permeation (Umeda et al., 2006).
Amphiregulin (AR) is an EGFR binding ligand and may play a pivotal role in the previously described signaling axis (see FIGS. 15-17). […] (ii) GI [intestinal epithelial cell (IEC)] and (iii) classical [Madin-Darby canine kidney (MDCK-1)].

For series [2] the following is noted: 14 week study, cited from earlier work.
Series [3] can be described thus: in vitro BBB permeability in MDCK-WT cells. Conditions: dog, MDCK. An excerpt: (§3) Wildtype Madin-Darby canine cells (MDCK-WT) were used to predict CNS permeability of compounds PS-RG0103, PS-RG0216, PS-RG0245 and PS-AD0191. […] J Allergy Clin Immunol. 1990; 86(6 pt 2): p. 1025-8.
(§4) Novel MAO B inhibitors selected based on the above screening program will be screened using an in vitro model of blood brain barrier (BBB). Madin-Darby canine kidney (MDCK-WT) and MDCK cells transfected with the human MDR1 gene (MDCK-MDR1) are well established in vitro models used to predict a compound's ability to permeate the blood brain barrier (BBB). […] Apparent permeability (Papp), Efflux ratio (Papp B-A/Papp A-B), as well as the Net flux ratio (Efflux ratioMDCK-MDR1/Efflux ratioMDCK-WT) can be calculated to identify compound BBB permeability and identify compounds that are substrates of P-gp.

Another series concerns the target T2, recombinant human MAO-B (Homo sapiens, UniProt P27338).
T2 sequence (P27338 1-520): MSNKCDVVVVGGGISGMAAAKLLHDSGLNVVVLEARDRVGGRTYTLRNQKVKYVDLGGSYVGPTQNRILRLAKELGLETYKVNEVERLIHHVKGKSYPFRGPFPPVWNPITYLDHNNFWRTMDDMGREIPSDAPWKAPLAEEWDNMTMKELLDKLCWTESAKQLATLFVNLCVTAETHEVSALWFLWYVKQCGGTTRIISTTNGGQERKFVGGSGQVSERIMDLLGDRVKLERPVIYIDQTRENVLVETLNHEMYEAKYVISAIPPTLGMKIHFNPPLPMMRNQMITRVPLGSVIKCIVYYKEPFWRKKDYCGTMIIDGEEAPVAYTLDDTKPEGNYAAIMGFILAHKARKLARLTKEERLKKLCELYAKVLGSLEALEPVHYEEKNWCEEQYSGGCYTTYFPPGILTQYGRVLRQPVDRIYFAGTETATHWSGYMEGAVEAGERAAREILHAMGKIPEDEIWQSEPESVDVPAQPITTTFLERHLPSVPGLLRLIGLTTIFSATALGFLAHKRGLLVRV
Put plainly: Cell-free Fluorescent Monoamine Oxidase A&B Detection Assay, MAO-B. Conditions: for IC50: read-out: IC50 MAO-B. In kind it is biochemical. The method, then:
as §1, §2

The conditions of series [4]: hepatocytes, 1 h.
Series [5] can be described thus: stability assay in mouse liver microsomes. Conditions: after 60 minutes at room temperature. In general terms: Microsomes from liver hold many membrane-bound enzymes, among them those of drug oxidation.
A short description of series [6]: stability assay in human liver microsomes. Conditions: after 60 minutes at room temperature.
In series [7] the test system is Wildtype Madin-Darby canine cells (MDCK-WT). In words: in vitro BBB permeability in MDCK-WT cells. Conditions: MDCK-WT; one-way ANOVA, Dunnett's test.
Description: as §3, §4

The mark [8] stands for this setting: cell-free, recombinant human MAO-A.
Setting [9] is: cell-free, recombinant human MAO-A, read-out: IC90 MAO-A.

Usually IC90 stands for the concentration at which the effect reaches the 90% level. Take `C#CCN(C)CCCOc1ccc(Cl)cc1Cl` [Clorgyline]: the IC90 on recombinant human MAO-A (read-out: IC90 MAO-A (μM)) was determined as 0.00624 µM. Further, the “144-hour barrier (TEER) vs control” value in series [1] (5 μm inhibitor) and in series [1] (40 μm inhibitor) was “significantly reduced the barrier” in each case. Further, the “effect on TEER (MAO A, B, AB inhibitors)” value in series [1] is “generally reduced TEER”.
Regarding `C#CCN(C)[C@H](C)Cc1ccccc1` [L-selegiline], in [2], the “total body fat reduction compared to control rats” value is recorded as 30%. In [2] (rats), the “food intake vs untreated controls” value is listed as “comparable”, the “lower weight gain compared to untreated controls” value is on record as 14% and the “plasma leptin levels reduction” value is 41%.
For orientation: IC50 means the midpoint of a concentration-inhibition curve. The Papp is a coefficient for how fast a substance crosses the barrier. Take `CN(CC(=O)O)[C@H](CC#N)Cc1ccc(OCc2ccc(Cl)c(Cl)c2)cc1.Cl` [PS-AD0191, (S)—N-(1-cyano-3-(4-((3,4-dichlorobenzyl)oxy)phenyl)propan-2-yl)-N-methylglycine]: the IC50 is 54.6 µM on recombinant human MAO-A (setting [8]); 0.3 µM and 0.302 µM at recombinant human MAO-B. For the same compound, the IC90 on recombinant human MAO-A (setting [9]) was 424 µM; on recombinant human MAO-B it was 1.03 µM. The Papp in [3] was 7.9 ± 1.4 ×10⁻⁶ cm/s.
Take `C[C@H](Cc1ccc(OCc2cccc(Cl)c2)cc1)N(C)CC(=O)O` [PS-RG0103, N—((R)-(1-(4-(3-chlorobenzyloxy)phenyl)propan-2-yl)(methyl))glycine hydrochloride]: in series [4], the “compound remaining, mouse hepatocyte stability” value was found to be 101%. Also, at recombinant human MAO-A (cell-free, recombinant human MAO-A, hydrochloride), the “IC50 MAO-A (μM)” value was “no activity on MAO-A; also recorded: Does not”. Further, in [3], the Papp is 2.2 ± 0.2 ×10⁻⁶ cm/s. Besides, the “compound remaining in mouse microsome” value in series [5] came to 69%. Also, at recombinant human MAO-B, the IC90 is 2.27 µM; the IC50 was 0.27 µM and 0.275 µM. Also, the “compound remaining in human microsome” value in series [6] amounted to 93%.
As to `C[C@H](Cc1ccc(OCc2cc(F)cc(F)c2)cc1)N(C)CC(=O)O.Cl` [PS-RG0174, (R)—N-(1-(4-((3,5-difluorobenzyl)oxy)phenyl)propan-2-yl)-N-methylglycine hydrochloride], the “IC50 MAO-A (μM)” value on recombinant human MAO-A (setting [8]) is listed as “Does not”. Moreover, at recombinant human MAO-B, the concentration for an effect of 90% (IC90) stood at 6.7 µM and the IC50 came out at 0.794 µM.
As to `CN(CC(=O)O)[C@H](CO)Cc1ccc(OCc2ccccc2)cc1` [PS-RG0188, (S)—N-(1-(4-(benzyloxy)phenyl)-3-hydroxypropan-2-yl)-N-methylglycine], at recombinant human MAO-A (setting [8]), the “IC50 MAO-A (μM)” value is reported as “Does not”. Moreover, on recombinant human MAO-B, the IC90 stood at 19.7 µM and the IC50 was 0.738 µM.
Consider `O=C([O-])C1=N[C@@H](Cc2ccccc2)CO1.[Na+]` [PS-RG0200], for which the “IC50 MAO-A (μM)” value on recombinant human MAO-A (setting [8]) was “Does not”. The “IC90 MAO-B (μM)” value at recombinant human MAO-B is given as “Does not”.
Take `CN(CC(=O)O)c1ccc(CCOCc2ccccc2)cc1.Cl` [PS-RG0210]: the “IC50 MAO-A (μM)” value at recombinant human MAO-A (setting [8]) is “Does not”. Moreover, on recombinant human MAO-B, the IC90 is 708 µM and the IC50 was 23.6 µM.
For `C[C@H](Cc1ccc(OCc2ccccn2)cc1)N(C)CC(=O)O.Cl.Cl` [PS-RG0217, (R)—N-methyl-N-(1-(4-(pyridin-2-ylmethoxy)phenyl)propan-2-yl)glycine hydrochloride] the same measures were “Does not”, 577 µM and 26.6 µM.
Take `C[C@H](Cc1ccc(OCc2cccnc2)cc1)N(C)CC(=O)O.Cl.Cl` [PS-RG0218]: the “IC50 MAO-A (μM)” value on recombinant human MAO-A (setting [8]) was “Does not”. Moreover, on recombinant human MAO-B, the “IC90 MAO-B (μM)” value was “Does not”.
`C[C@H](Cc1ccc(OCC(=O)O)cc1)N(C)CC(=O)O.Cl` [PS-RG0219]: the “IC50 MAO-A (μM)” value at recombinant human MAO-A (setting [8]) is reported as “Does not”. The “IC90 MAO-B (μM)” value at recombinant human MAO-B is given as “Does not”.
With `C[C@H](Cc1ccc(OCc2ccc(Cl)cc2)cc1)N(C)CC(=O)O` [PS-RG0226, (R)—N-(1-(4-((4-chlorobenzyl)oxy)phenyl)propan-2-yl)-N-methylglycine hydrochloride], the IC50 at recombinant human MAO-A (setting [8]) was 198 µM; at recombinant human MAO-B it was 0.505 µM. The 90% effect concentration (IC90) is 1260 µM at recombinant human MAO-A (setting [9]) and 3.42 µM at recombinant human MAO-B.
Taken in the same sequence, the figures for `C[C@H](Cc1ccc(OCc2ccc3ccccc3c2)cc1)N(C)CC(=O)O` [PS-RG0227, (R)—N-methyl-N-(1-(4-(naphthalen-2-ylmethoxy)phenyl)propan-2-yl)glycine hydrochloride] were 955 µM, 11.5 µM, 63000 µM and 843 µM.
As for `C[C@H](Cc1ccc(OCc2ccc(Cl)c(Cl)c2)cc1)N(C)CC(=O)O.Cl` [PS-RG0245, (R)—N-(1-(4-((3,4-dichlorobenzyl)oxy)phenyl)propan-2-yl)-N-methylglycine hydrochloride], the half-maximal inhibitory concentration (IC50) was 17.2 µM and 17.1 µM on recombinant human MAO-A (setting [8]); 0.21 µM and 0.207 µM on recombinant human MAO-B. Also, the IC90 is 99.8 µM on recombinant human MAO-A (setting [9]) and 0.873 µM at recombinant human MAO-B. Further, the Papp in series [3] stood at 3.6 ± 0.2 ×10⁻⁶ cm/s. Also, the “permeability compared with cetirizine” value in series [7] is on record as “not different from cetirizine”.
`COC(=O)c1ccc(COc2ccc(C[C@@H](C)N(C)CC(=O)O)cc2)cc1.Cl` [PS-RG0246, (R)—N-(1-(4-((4-(methoxycarbonyl)benzyl)oxy)phenyl)propan-2-yl)-N-methylglycine hydrochloride]: the “IC50 MAO-A (μM)” value at recombinant human MAO-A (setting [8]) is “Does not”. Moreover, on recombinant human MAO-B, the IC90 amounted to 10600 µM and the IC50 was 361 µM.
Taken in the same sequence, the figures for `C[C@H](Cc1ccc(OCCc2ccccc2)cc1)N(C)CC(=O)O.Cl` [PS-RG0247] were “Does not”, 619 µM and 19.3 µM.
For the compound `COc1cccc(COc2ccc(C[C@@H](C)N(C)CC(=O)O)cc2)c1` [PS-RG0264, (R)—N-(1-(4-((3-methoxybenzyl)oxy)phenyl)propan-2-yl)-N-methylglycine hydrochloride], the IC50 was 359 µM at recombinant human MAO-A (setting [8]) and 2.22 µM at recombinant human MAO-B. In addition, the IC90 at recombinant human MAO-A (setting [9]) is 78500 µM; at recombinant human MAO-B, 50.5 µM.
Take `O=C(NCCN1CCOCC1)c1ccc(Cl)cc1` [moclobemide]: the “144-hour barrier (TEER) vs control” value in series [1] (5 μm inhibitor) is listed as “increased over control”. Moreover, the “barrier integrity at low doses” value in [1] (low doses) is “small increase in the barrier integrity”. In series [1], the “effect on TEER (MAO A, B, AB inhibitors)” value is recorded as “generally reduced TEER”.
Take `C#CCN(C)Cc1ccccc1` [pargyline]: the “144-hour barrier (TEER) vs control” value in series [1] (5 μm inhibitor) and in [1] (40 μm inhibitor) was “increased over control” each time. For the same compound, the “effect on TEER (MAO A, B, AB inhibitors)” value in series [1] is reported as “increased TEER”.
